Test results published in ChEMBL document CHEMBL1201862, “PubChem BioAssay data set” (2004).
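Exposure lasted 48 hours, with cells grown in 96-well plates and compounds tested at five concentrations. Abbreviation: GI50, concentration required for 50% inhibition of growth.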 Active and inactive are the calls of the source. No stated cut-off is given here; in the data, active = GI50 up to about 1.1 µM and inactive = higher.

Columns and labels:
Experiment in all cases: NCI tumour cell line growth inhibition, 48 h
A498 = tested on: A498
LOX IMVI = tested on: LOX IMVI
HOP-92 = tested on: HOP-92
BT-549 = tested on: BT-549
SNB-19 = tested on: SNB-19
NCI-H226 = tested on: NCI-H226
A549 = tested on: A549
IGROV-1 = tested on: IGROV-1
COLO 205 = tested on: COLO 205
RPMI-8226 = tested on: RPMI-8226
HCC 2998 = tested on: HCC 2998
HOP-62 = tested on: HOP-62
RXF 393 = tested on: RXF 393
OVCAR-5 = tested on: OVCAR-5
SR = tested on: SR
SN12C = tested on: SN12C
SW-620 = tested on: SW-620
NCI-H460 = tested on: NCI-H460
CCRF-CEM = tested on: CCRF-CEM

Row | SMILES | GI50 (A498) | GI50 (LOX IMVI) | GI50 (HOP-92) | GI50 (BT-549) | GI50 (SNB-19) | GI50 (NCI-H226) | GI50 (A549) | GI50 (IGROV-1) | GI50 (COLO 205) | GI50 (RPMI-8226) | GI50 (HCC 2998) | GI50 (HOP-62) | GI50 (RXF 393) | GI50 (OVCAR-5) | GI50 (SR) | GI50 (SN12C) | GI50 (SW-620) | GI50 (NCI-H460) | GI50 (CCRF-CEM)
1 | Fc1cc2nc3n(c2cc1F)C(c1c(F)cccc1F)SC3 (centres undefined) | 29.8 µM (inactive) | 38.8 µM (inactive) | 38.8 µM (inactive) | 53.2 µM (inactive) | > 100 µM (inactive) | 52 µM (inactive) | 37.1 µM (inactive) | 47.9 µM (inactive) | 31.3 µM (inactive) | 34.5 µM (inactive) | 68.4 µM (inactive) | 67.9 µM (inactive) | 26.9 µM (inactive) | 53.3 µM (inactive) | 30.1 µM (inactive) | 51.9 µM (inactive) | 45 µM (inactive) | 36.8 µM (inactive) | –
2 | N#C[C@H](c1nc2ccccc2s1)c1nc2ccccc2nc1Cl | > 100 µM (inactive) | – | 19.1 µM (inactive) | 4.79 µM (inactive) | > 100 µM (inactive) | > 100 µM (inactive) | 32.4 µM (inactive) | > 100 µM (inactive) | > 100 µM (inactive) | > 100 µM (inactive) | 2.67 µM (inactive) | 17.9 µM (inactive) | 13.4 µM (inactive) | 17.9 µM (inactive) | > 100 µM (inactive) | > 100 µM (inactive) | > 100 µM (inactive) | 18.6 µM (inactive) | > 100 µM (inactive)
3 | CC12CC3OC(=O)C1COC14OC5(C2C1=O)C(O)(CCC1C4CC2OC24CC=CC(=O)C14C)C(=O)OC35C (centres undefined) | 18.8 µM (inactive) | 11.3 µM (inactive) | 21.8 µM (inactive) | 2.64 µM (inactive) | 20 µM (inactive) | – | 27 µM (inactive) | 18.4 µM (inactive) | 10.3 µM (inactive) | 19.2 µM (inactive) | 18.7 µM (inactive) | 20.9 µM (inactive) | 3.99 µM (inactive) | 18.4 µM (inactive) | 8.85 µM (inactive) | 21.5 µM (inactive) | 12.4 µM (inactive) | 30.4 µM (inactive) | 4.1 µM (inactive)
4 | CC(C)NC(=O)OCc1c(COC(=O)NC(C)C)c(-c2ccc[n+](COC(=O)C(C)(C)C)c2)n2c1CCC2 | 32.7 µM (inactive) | 46.6 µM (inactive) | > 91.6 µM (inactive) | > 100 µM (inactive) | > 100 µM (inactive) | > 91 µM (inactive) | 99.1 µM (inactive) | > 80.7 µM (inactive) | > 93.5 µM (inactive) | > 100 µM (inactive) | > 100 µM (inactive) | > 71.1 µM (inactive) | 30.5 µM (inactive) | > 100 µM (inactive) | > 70.8 µM (inactive) | 54.1 µM (inactive) | > 100 µM (inactive) | 40.9 µM (inactive) | 24.9 µM (inactive)
5 | O=C(/C=C/c1cc(F)ccc1F)OCCc1ccccc1 | > 100 µM (inactive) | – | 40.6 µM (inactive) | > 100 µM (inactive) | > 100 µM (inactive) | > 100 µM (inactive) | > 100 µM (inactive) | > 100 µM (inactive) | > 100 µM (inactive) | 47.3 µM (inactive) | > 100 µM (inactive) | > 100 µM (inactive) | 91.6 µM (inactive) | > 100 µM (inactive) | 40.2 µM (inactive) | – | > 100 µM (inactive) | – | 38.3 µM (inactive)
6 | O=C(/C=C/c1ccc2c(c1)OCO2)CC(=O)C(=O)c1c[nH]c2ccccc12 | 65.5 µM (inactive) | 40.2 µM (inactive) | 81.7 µM (inactive) | 25.9 µM (inactive) | 46.2 µM (inactive) | – | 35.3 µM (inactive) | 47.8 µM (inactive) | 35.3 µM (inactive) | 35.4 µM (inactive) | 16.3 µM (inactive) | 41.6 µM (inactive) | 31.6 µM (inactive) | 77.4 µM (inactive) | 31.6 µM (inactive) | 45.8 µM (inactive) | 29.4 µM (inactive) | 33.7 µM (inactive) | 26.7 µM (inactive)
7 | CCOC(=O)N1[C@@H]2CCC[C@@H]2C(=O)[C@@H]2CCC[C@@H]21 | > 100 µM (inactive) | > 100 µM (inactive) | > 100 µM (inactive) | > 100 µM (inactive) | > 100 µM (inactive) | > 100 µM (inactive) | > 100 µM (inactive) | > 100 µM (inactive) | > 100 µM (inactive) | > 100 µM (inactive) | > 100 µM (inactive) | > 100 µM (inactive) | > 100 µM (inactive) | > 100 µM (inactive) | > 100 µM (inactive) | > 100 µM (inactive) | > 100 µM (inactive) | > 100 µM (inactive) | > 100 µM (inactive)
8 | COC(=O)[C@@H]1C=CCN1S(=O)(=O)c1ccc(C)cc1 | > 100 µM (inactive) | > 100 µM (inactive) | 55.5 µM (inactive) | > 100 µM (inactive) | > 100 µM (inactive) | > 100 µM (inactive) | > 100 µM (inactive) | > 100 µM (inactive) | > 100 µM (inactive) | > 100 µM (inactive) | 70.6 µM (inactive) | > 100 µM (inactive) | 50.5 µM (inactive) | > 100 µM (inactive) | 20.5 µM (inactive) | > 100 µM (inactive) | > 100 µM (inactive) | 42.5 µM (inactive) | 21.8 µM (inactive)
9 | C=C1C(=O)O[C@H]2C/C(C)=C/CC/C(C)=C/CC[C@@](C)(O)[C@@H](I)C[C@@H]12 | 17.7 µM (inactive) | 0.234 µM (active) | 2.34 µM (inactive) | 1.13 µM (inactive) | 15 µM (inactive) | 3.42 µM (inactive) | 11.2 µM (inactive) | 3.15 µM (inactive) | 9.44 µM (inactive) | 2.69 µM (inactive) | 12.5 µM (inactive) | 16.4 µM (inactive) | 3.84 µM (inactive) | 14.5 µM (inactive) | 2.67 µM (inactive) | 5.06 µM (inactive) | 4.25 µM (inactive) | 13.2 µM (inactive) | 1.49 µM (inactive)
10 | COc1ccc(OC)c2c1C[C@@H]1C(C#N)N3[C@H](Cc4c(OC)ccc(OC)c4[C@@H]3C)C(=O)N1[C@H]2C (some centres undefined) | 11.2 µM (inactive) | 2.44 µM (inactive) | 2.06 µM (inactive) | 1.97 µM (inactive) | 2.15 µM (inactive) | 13.5 µM (inactive) | 9.53 µM (inactive) | 4.56 µM (inactive) | 1.84 µM (inactive) | 2.53 µM (inactive) | 3.61 µM (inactive) | 22.5 µM (inactive) | 1.83 µM (inactive) | 8.09 µM (inactive) | 2.15 µM (inactive) | 4.42 µM (inactive) | 2.86 µM (inactive) | 7.85 µM (inactive) | 1.9 µM (inactive)
11 | O=C(Nc1ccc(Cl)cc1)c1cc(S(=O)(=O)Nc2nnc3c(Cl)cc(C(F)(F)F)cn23)c(S)cc1Cl | 28.7 µM (inactive) | – | > 100 µM (inactive) | > 100 µM (inactive) | 52.2 µM (inactive) | > 100 µM (inactive) | > 100 µM (inactive) | > 100 µM (inactive) | > 100 µM (inactive) | > 100 µM (inactive) | > 100 µM (inactive) | 54.5 µM (inactive) | > 100 µM (inactive) | > 100 µM (inactive) | 29.6 µM (inactive) | 84.5 µM (inactive) | – | 43.1 µM (inactive) | > 100 µM (inactive)
12 | COC(=O)C1=C(C(=O)OC)C(C(=O)c2ccccc2)N2N=C(c3ccc(Cl)cc3)C=CC12 (centres undefined) | > 100 µM (inactive) | 18.7 µM (inactive) | > 100 µM (inactive) | 2.09 µM (inactive) | > 100 µM (inactive) | 13.9 µM (inactive) | 31 µM (inactive) | – | > 100 µM (inactive) | 3.95 µM (inactive) | > 100 µM (inactive) | > 100 µM (inactive) | 4.15 µM (inactive) | > 100 µM (inactive) | > 100 µM (inactive) | 85.5 µM (inactive) | > 100 µM (inactive) | 37.1 µM (inactive) | 13.6 µM (inactive)
13 | Nc1nc(N)nc(-c2cnc3ccccc3c2)n1 | > 100 µM (inactive) | > 100 µM (inactive) | 73.5 µM (inactive) | > 100 µM (inactive) | > 100 µM (inactive) | > 100 µM (inactive) | > 100 µM (inactive) | 58.6 µM (inactive) | > 100 µM (inactive) | – | > 100 µM (inactive) | > 100 µM (inactive) | 94.2 µM (inactive) | 39.5 µM (inactive) | 37 µM (inactive) | > 100 µM (inactive) | > 100 µM (inactive) | > 100 µM (inactive) | 13.4 µM (inactive)
14 | CCCn1cnc2c(/N=N/O)ncnc21 | > 100 µM (inactive) | – | > 100 µM (inactive) | > 100 µM (inactive) | > 100 µM (inactive) | > 100 µM (inactive) | – | > 100 µM (inactive) | > 100 µM (inactive) | > 100 µM (inactive) | > 100 µM (inactive) | > 100 µM (inactive) | > 100 µM (inactive) | > 100 µM (inactive) | > 100 µM (inactive) | – | > 100 µM (inactive) | > 100 µM (inactive) | –
15 | C=C1C(=O)OC2/C=C(\C)CC/C=C(\C)CC(OC(=O)/C(=C/CO)CO)[C@@H]12 (some centres undefined) | 19 µM (inactive) | 16 µM (inactive) | 4.93 µM (inactive) | 12.1 µM (inactive) | > 51.4 µM (inactive) | 32.8 µM (inactive) | 23.4 µM (inactive) | 10.5 µM (inactive) | 2.2 µM (inactive) | 1.61 µM (inactive) | 18.7 µM (inactive) | – | 7.19 µM (inactive) | 17.3 µM (inactive) | 9.73 µM (inactive) | 13.6 µM (inactive) | 1.69 µM (inactive) | 22.1 µM (inactive) | 2.09 µM (inactive)
